The Kinase Knowledgebase extract (Sharma et al. 2016)

biological target: MAPK14 (UniProt Q16539); experiment: Inhibition of MAPK14 Kinase Activity
Sequence (Q16539 whole entry, looked up): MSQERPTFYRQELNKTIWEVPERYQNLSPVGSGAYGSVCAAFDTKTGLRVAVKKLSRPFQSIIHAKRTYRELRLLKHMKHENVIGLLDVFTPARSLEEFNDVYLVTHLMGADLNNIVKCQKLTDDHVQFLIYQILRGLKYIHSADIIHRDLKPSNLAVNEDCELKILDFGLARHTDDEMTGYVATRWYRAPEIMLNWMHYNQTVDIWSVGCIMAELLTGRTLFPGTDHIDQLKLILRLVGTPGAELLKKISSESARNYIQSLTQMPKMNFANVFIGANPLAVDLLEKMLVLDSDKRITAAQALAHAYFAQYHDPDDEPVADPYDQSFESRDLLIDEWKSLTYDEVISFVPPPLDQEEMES

IC50 [µM] | Compound
≤ 5 | Cc1ccccc1-c1nc(-c2ccc3nc(N)n(S(=O)(=O)C(C)C)c3c2)c(-c2ccccc2)[nH]1
≤ 5 | CC(C)c1nc(-c2ccc3nc(N)n(S(=O)(=O)C(C)C)c3c2)c(-c2ccccc2)[nH]1
≤ 5 | CC(C)S(=O)(=O)n1c(N)nc2ccc(-c3c(-c4cccc(F)c4)ncn3Cc3cccnc3)cc21
≤ 5 | CC(C)S(=O)(=O)n1c(N)nc2ccc(-c3nc(-c4c(F)cccc4F)n(C)c3-c3ccccc3)cc21
≤ 5 | CC(C)S(=O)(=O)n1c(N)nc2ccc(-c3c(-c4ccc(F)cc4)ncn3C3CCN(Cc4ccccc4)CC3)cc21
≤ 5 | CC(C)S(=O)(=O)n1c(N)nc2ccc(-c3nc(-c4ccc(F)cc4F)[nH]c3-c3ccccc3)cc21
≤ 5 | CC(C)S(=O)(=O)n1c(N)nc2ccc(-c3c(-c4ccccc4)ncn3Cc3ccccc3F)cc21
≤ 5 | CC(C)S(=O)(=O)n1c(N)nc2ccc(-c3nc(-c4ccc(N)s4)[nH]c3-c3ccccc3)cc21
≤ 5 | CC(C)S(=O)(=O)n1c(N)nc2ccc(-c3nc(C(F)(F)F)[nH]c3-c3ccccc3)cc21
≤ 5 | CC(C)S(=O)(=O)n1c(N)nc2ccc(-c3nc(-c4ccc(Cl)cc4F)[nH]c3-c3ccccc3)cc21
≤ 5 | CC(C)S(=O)(=O)n1c(N)nc2ccc(-c3c(-c4ccccc4F)nc(N)n3C3CC3)cc21
≤ 5 | CC(C)S(=O)(=O)n1c(N)nc2ccc(-c3c(-c4ccccc4)ncn3CCCN3CCOCC3)cc21
≤ 5 | CC(C)n1cnc(-c2ccc(F)cc2)c1-c1ccc2nc(N)n(S(=O)(=O)C(C)C)c2c1
≤ 5 | CC(C)S(=O)(=O)n1c(N)nc2ccc(-c3c(-c4ccc(F)cc4)ncn3CCN3CCOCC3)cc21
≤ 5 | CC(C)S(=O)(=O)n1c(N)nc2ccc(-c3c(-c4ccccc4F)ncn3C3CC3)cc21
≤ 5 | CC(C)S(=O)(=O)n1c(N)nc2ccc(-c3[nH]n(-c4cc(F)ccc4F)c(=O)c3-c3ccccc3)cc21
≤ 5 | CC(C)S(=O)(=O)n1c(N)nc2ccc(-c3c(-c4ccccc4)ncn3C3CC(C)(C)NC(C)(C)C3)cc21
≤ 5 | CC(C)S(=O)(=O)n1c(N)nc2ccc(-c3nc(-c4cc(F)ccc4F)[nH]c3-c3ccccc3)cc21
≤ 5 | CC(C)S(=O)(=O)n1c(N)nc2ccc(-c3c(-c4ccccc4)ncn3C3CC3)cc21
≤ 5 | CC(C)S(=O)(=O)n1c(N)nc2ccc(-c3c(-c4ccccc4)ncn3C)cc21
≤ 5 | CC(C)S(=O)(=O)n1c(N)nc2ccc(-c3c(-c4ccccc4)ncn3CC3CC3)cc21
≤ 5 | CC(C)S(=O)(=O)n1c(N)nc2ccc(-c3c(-c4cccc(F)c4F)ncn3C)cc21
≤ 5 | CC(C)S(=O)(=O)n1c(N)nc2ccc(-c3c(-c4cccc(F)c4)ncn3C3CC3)cc21
≤ 5 | CC(C)S(=O)(=O)n1c(N)nc2ccc(-c3nc(-c4cccnc4)[nH]c3-c3ccccc3)cc21
≤ 5 | CC(C)S(=O)(=O)n1c(N)nc2ccc(-c3c(-c4ccc(F)cc4)ncn3CC3CC3)cc21
≤ 5 | CC(C)S(=O)(=O)n1c(N)nc2ccc(-c3c(-c4ccccc4)ncn3-c3ccc(N)cc3)cc21
≤ 5 | CC(C)S(=O)(=O)n1c(N)nc2ccc(-c3c(-c4ccccc4)ncn3[C@@H](CO)c3ccccc3)cc21
≤ 5 | COC(=O)CCn1cnc(-c2ccccc2)c1-c1ccc2nc(N)n(S(=O)(=O)C(C)C)c2c1
≤ 5 | CC(C)S(=O)(=O)n1c(N)nc2ccc(-c3nc(-c4ccccc4C(F)(F)F)[nH]c3-c3ccccc3)cc21
≤ 5 | COc1ccc(Cn2c(CO)nc(-c3ccccc3)c2-c2ccc3nc(N)n(S(=O)(=O)C(C)C)c3c2)cc1

The remaining lines, values behind:

Compound | IC50 [µM]
CC(C)S(=O)(=O)n1c(N)nc2ccc(-c3nc(C4CCN(CCO)CC4)[nH]c3-c3ccccc3)cc21 | ≤ 5
CC(C)S(=O)(=O)n1c(N)nc2ccc(-c3nc(C(C)(C)C)[nH]c3-c3ccc(F)cc3)cc21 | ≤ 5
CC(C)S(=O)(=O)n1c(N)nc2ccc(-c3c(-c4ccccc4F)nc(-c4ccc(F)cc4F)n3C3CC3)cc21 | ≤ 5
CCOC(=O)N1CCC(n2cnc(-c3cccc(F)c3)c2-c2ccc3nc(N)n(S(=O)(=O)C(C)C)c3c2)CC1 | ≤ 5
CC(C)S(=O)(=O)n1c(N)nc2ccc(-c3nc(C4CCCCC4)[nH]c3-c3ccccc3)cc21 | ≤ 5
CC(C)S(=O)(=O)n1c(N)nc2ccc(-c3c(-c4ccccc4F)nc(C#CCCO)n3C3CC3)cc21 | ≤ 5
CC(C)S(=O)(=O)n1c(N)nc2ccc(-c3c(-c4ccc(F)cc4F)ncn3[C@H]3CC[C@H](O)CC3)cc21 | ≤ 5
CCc1ccc(-c2nc(-c3ccc4nc(N)n(S(=O)(=O)C(C)C)c4c3)c(-c3ccc(F)cc3)[nH]2)s1 | ≤ 5
CC(C)S(=O)(=O)n1c(N)nc2ccc(-c3nc(C4CCN(Cc5nccn5C)CC4)[nH]c3-c3ccccc3)cc21 | ≤ 5
CC(C)S(=O)(=O)n1c(N)nc2ccc(-c3nc[nH]c3-c3cccc(F)c3)cc21 | ≤ 5
CC(C)S(=O)(=O)n1c(N)nc2ccc(-c3nc(C4CCCCC4)[nH]c3-c3ccc(F)cc3)cc21 | ≤ 5
CC(C)S(=O)(=O)n1c(N)nc2ccc(-c3nc(-c4ccc(OCCN(C)C)cc4)[nH]c3-c3ccccc3)cc21 | ≤ 5
CC(C)S(=O)(=O)n1c(N)nc2ccc(-c3nc(CCC(=O)O)[nH]c3-c3ccccc3)cc21 | ≤ 5
CC(C)S(=O)(=O)n1c(N)nc2ccc(-c3c(-c4cccc(F)c4F)ncn3[C@H]3CC[C@H](O)CC3)cc21 | ≤ 5
Nc1nc2ccc(-c3nc(-c4cccs4)[nH]c3-c3ccccc3)cc2[nH]1 | ≤ 5
CC(C)S(=O)(=O)n1c(N)nc2ccc(-c3nc(-c4ccc(S(C)(=O)=O)cc4)[nH]c3-c3ccccc3)cc21 | ≤ 5
CC(C)S(=O)(=O)n1c(N)nc2ccc(-c3nc(CNCCN(C)C)[nH]c3-c3ccccc3)cc21 | ≤ 5
CC(C)S(=O)(=O)n1c(N)nc2ccc(-c3nc(C4CCN(C(=O)OCc5ccccc5)CC4)[nH]c3-c3ccccc3)cc21 | ≤ 5
CC(C)S(=O)(=O)n1c(N)nc2ccc(-c3c(-c4ccc(F)cc4)ncn3C3CCCCC3)cc21 | ≤ 5
CCN1CCC(c2nc(-c3ccc4nc(N)n(S(=O)(=O)C(C)C)c4c3)c(-c3ccccc3)[nH]2)CC1 | ≤ 5
CCOC(=O)/C=C/c1nc(-c2ccc3nc(N)n(S(=O)(=O)C(C)C)c3c2)c(-c2ccccc2)[nH]1 | ≤ 5
CC(C)S(=O)(=O)n1c(N)nc2ccc(-c3nc(-c4cccc(OCCC5=CC=CNC=C5)c4)[nH]c3-c3ccccc3)cc21 | ≤ 5
CC(C)S(=O)(=O)n1c(N)nc2ccc(-c3nc(CN(C)C)[nH]c3-c3ccccc3)cc21 | ≤ 5
CC(C)S(=O)(=O)n1c(N)nc2ccc(-c3nc(CC(C)(C)C)[nH]c3-c3ccc(F)cc3)cc21 | ≤ 5
CC(C)S(=O)(=O)n1c(N)nc2ccc(-c3c(-c4ccccc4)ncn3C3CCC4(CC3)OCCO4)cc21 | ≤ 5
CC(C)S(=O)(=O)n1c(N)nc2ccc(-c3nc(-c4cccc(OCCN5CCOCC5)c4)[nH]c3-c3ccccc3)cc21 | ≤ 5
CC(C)S(=O)(=O)n1c(N)nc2ccc(-c3nc(C4CCN(CCN(C)C)CC4)[nH]c3-c3ccccc3)cc21 | ≤ 5
CC(C)S(=O)(=O)n1c(N)nc2ccc(-c3nc(C(C)(C)C)[nH]c3-c3ccccc3)cc21 | ≤ 5
Cc1ccc(-c2[nH]c(-c3ccc(F)cc3)nc2-c2ccc3nc(N)n(S(=O)(=O)C(C)C)c3c2)cc1 | ≤ 5
Cc1nc(-c2ccc3nc(N)n(S(=O)(=O)C(C)C)c3c2)c(-c2ccc(F)cc2)[nH]1 | ≤ 5
